Key:
TBK-1 = TBK-1 (Homo sapiens (Human), UniProt Q9UHD2); assay: biochemical; conditions: 20 μM ATP (apparent Km), 8 nM kinase, 2.5 hr; values are activity bands; read-out: Inhibition of TBK-1 IC50
Protocol: (§1) Compounds of the invention (synthesised as described below) were tested for activity against the IKKε and TBK-1 enzyme as follows:
(§2) Inhibitions studies were performed using a time-resolved fluorescence-based Lanthascreen™ assay. Phosphorylation of a fluorescein-labelled substrate peptide is measured using terbium-labeled phosphospecific antibodies. Terbium is excited at 340 nm and the FRET energy transfer to fluorescein is measured at 495 and 520 nm. The emission ratio between 520 and 495 is a measure of the level of phosphorylation of the substrate by the kinase.
(§3) Kinase inhibition assays (10 μL) were performed at 20° C. in 384-well plate format. Compound IC50 values were determined at the apparent Km for ATP (20 μM) based on a radiometric assay (Invitrogen) using 8 or 10 point curves in duplicate. The final reaction conditions contained 400 nM fluorescein-IkBα substrate ([…]), 20 μM ATP, 2 nM or 8 nM IKKε or TBK1 kinase respectively, and 3% DMSO in kinase assay buffer consisting of 50 mM HEPES (pH 7.5), 10 mM MgCl, 1 mM EGTA, 0.01% Brij-35.
(§4) Compound dilutions were prepared from 10 mM DMSO stocks by dilution into DMSO.
(§5) The kinase phosphorylation assay was initiated by the addition of the kinase and the reaction was allowed to proceed for 1 hr or 2.5 hr for IKKε and TBK-1 kinase respectively. […] The reaction was stopped by the addition of 10 mM EDTA, and phosphorylation was detected after a 1 hr incubation with 1.5 nM terbium-labelled antibody against phosphorylation at Serine 32 on the IkBα[…]peptide, both in TR-FRET dilution buffer (Invitrogen).
(§6) In the data presented for IKKε, <9 μM means having an activity in the range from 300 nM≦9 μM; and <300 nM means having an activity in the range 30 nM≦300 nM; and for the data presented for TBK-1, <3 μM means having an activity in the range 300 nM≦3 μM, and <300 nM means having an activity in the range 30 nM≦300 nM.

IKKε = IKKε (Homo sapiens (Human), UniProt Q14164); assay: IKKε time-resolved fluorescence Lanthascreen kinase inhibition assay; assay type: biochemical; conditions: 20 μM ATP (apparent Km), 2 nM kinase, 1 hr; values are activity bands; read-out: Inhibition of IKKε IC50
IKKε, sequence (Q14164 whole entry): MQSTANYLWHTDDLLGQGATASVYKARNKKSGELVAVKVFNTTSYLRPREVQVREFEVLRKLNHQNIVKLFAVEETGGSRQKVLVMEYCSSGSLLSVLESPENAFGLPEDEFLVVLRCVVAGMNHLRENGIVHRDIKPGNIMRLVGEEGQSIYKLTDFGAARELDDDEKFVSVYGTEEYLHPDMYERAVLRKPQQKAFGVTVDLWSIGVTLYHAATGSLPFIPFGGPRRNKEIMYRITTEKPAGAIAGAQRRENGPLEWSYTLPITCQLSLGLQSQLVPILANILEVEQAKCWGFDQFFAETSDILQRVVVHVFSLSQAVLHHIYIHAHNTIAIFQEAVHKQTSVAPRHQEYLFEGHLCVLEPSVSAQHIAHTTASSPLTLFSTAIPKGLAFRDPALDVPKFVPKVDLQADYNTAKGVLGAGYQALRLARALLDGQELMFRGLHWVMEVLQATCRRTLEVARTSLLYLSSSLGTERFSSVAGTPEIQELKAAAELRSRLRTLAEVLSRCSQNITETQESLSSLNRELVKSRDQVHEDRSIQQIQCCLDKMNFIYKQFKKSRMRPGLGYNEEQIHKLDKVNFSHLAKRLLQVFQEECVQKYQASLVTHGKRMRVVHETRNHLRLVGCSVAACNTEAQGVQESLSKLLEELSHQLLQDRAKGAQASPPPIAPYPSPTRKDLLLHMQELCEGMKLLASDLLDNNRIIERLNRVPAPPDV
Protocol: as §1, §2, §3, §4, §5, §6

TBK-1, sequence (Q9UHD2 whole entry): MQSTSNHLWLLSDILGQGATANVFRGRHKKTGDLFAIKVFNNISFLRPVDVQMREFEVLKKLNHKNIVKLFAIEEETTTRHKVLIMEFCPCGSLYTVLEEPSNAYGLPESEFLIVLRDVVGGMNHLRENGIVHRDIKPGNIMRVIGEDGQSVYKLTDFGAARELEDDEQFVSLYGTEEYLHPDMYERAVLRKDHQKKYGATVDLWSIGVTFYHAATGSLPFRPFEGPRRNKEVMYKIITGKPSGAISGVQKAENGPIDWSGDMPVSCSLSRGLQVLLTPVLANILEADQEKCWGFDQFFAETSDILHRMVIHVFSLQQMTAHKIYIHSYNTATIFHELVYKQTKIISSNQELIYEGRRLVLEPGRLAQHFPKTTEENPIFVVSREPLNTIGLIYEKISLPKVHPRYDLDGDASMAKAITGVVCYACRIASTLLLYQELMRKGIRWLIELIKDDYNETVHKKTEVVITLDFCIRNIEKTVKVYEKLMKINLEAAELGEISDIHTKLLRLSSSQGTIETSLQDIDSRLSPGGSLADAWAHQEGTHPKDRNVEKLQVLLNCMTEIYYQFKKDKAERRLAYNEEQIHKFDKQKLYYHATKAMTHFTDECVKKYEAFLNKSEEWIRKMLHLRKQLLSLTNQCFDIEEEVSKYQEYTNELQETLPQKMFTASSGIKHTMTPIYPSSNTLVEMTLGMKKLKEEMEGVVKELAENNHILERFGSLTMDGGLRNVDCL

Row | SMILES | IC50 (TBK-1) [nM] | IC50 (IKKε) [nM]
1 | CN(C)CCNc1ccc(Nc2nccc(-c3ccc(N4CCC(C(N)=O)CC4)c(C#N)c3)n2)cn1 [DMX-64] | 30 to 300 | < 30
2 | CC(=O)N(C)c1ccc(Nc2nccc(-c3ccc(N4CCCC4)c(C#N)c3)n2)cc1 [DMX-37] | < 30 | < 30
3 | Cn1nccc1Nc1nccc(-c2ccc(N3CCC[C@@H]3C(N)=O)c(C#N)c2)n1 [DMX-53] | 300 to 3000 | 30 to 300
4 | CN(C)CCNc1ccc(Nc2nccc(-c3ccc(N4CCC(O)CC4)c(C#N)c3)n2)cn1 [DMX-65] | 30 to 300 | 30 to 300
5 | CN(C)CCNC(=O)c1cccc(Nc2nccc(-c3ccc(N4CCCC4)c(C#N)c3)n2)c1 [DMX-45] |  | < 30
6 | Cn1cnc(Nc2nccc(-c3ccc(N4CCCC4)c(C#N)c3)n2)c1 [DMX-57] | 30 to 300 | 30 to 300
7 | N#Cc1cc(-c2ccnc(Nc3cccc(NC(=O)N4CCCC4)c3)n2)ccc1N1CCCC1 [DMX-22, Pyrrolidine-1-carboxylic acid {3-[4-(3-cyano-4-pyrrolidin-1-yl-phenyl)-pyrimidin-2-ylamino]-phenyl}-amide] | < 30 | < 30
8 | CN1CCC(Nc2ccc(Nc3nccc(-c4ccc(N5CC[C@@H](F)C5)c(C#N)c4)n3)cn2)CC1 [DMX-77] | < 30 | < 30
9 | CN1CCN(c2ccc(Nc3nccc(-c4ccc(N5CCCC5)c(C#N)c4)n3)cn2)CC1 [DMX-19] | < 30 | < 30
10 | CC(=O)Nc1ccc(Nc2nccc(-c3ccc(N4CCC[C@H]4C(N)=O)c(C#N)c3)n2)cn1 [DMX-70] | 30 to 300 | 30 to 300
11 | Cn1ccc(Nc2nccc(-c3ccc(N4CCCC4)c(C#N)c3)n2)n1 [DMX-29] | 30 to 300 | 30 to 300
12 | CN(C)CCOc1ccc(Nc2nccc(-c3ccc(N4CCCC4)c(C#N)c3)n2)cn1 [DMX-61] | < 30 | < 30
13 | N#Cc1cc(-c2ccnc(Nc3cccc(C(F)(F)F)c3)n2)ccc1N1CCCC1 [DMX-2] |  | 300 to 9000
14 | Cn1nc(Nc2nccc(-c3ccc(N4CCCC4)c(C#N)c3)n2)cc1C(N)=O [DMX-40] |  | 30 to 300
15 | CNC(=O)[C@H]1CCCN1c1ccc(-c2ccnc(Nc3ccc(NC(C)=O)nc3)n2)cc1C#N [DMX-67] | < 9000 | 300 to 9000
16 | COC[C@H]1CCCN1c1ccc(-c2ccnc(Nc3ccc(NC(C)=O)nc3)n2)cc1C#N [DMX-71] | < 30 | < 30
17 | N#Cc1cc(-c2ccnc(Nc3ccc(F)cc3)n2)ccc1N1CCCC1 [DMX-4] |  | 30 to 300
18 | CO[C@H]1CCN(c2ccc(-c3ccnc(Nc4ccc(NC(C)=O)nc4)n3)cc2C#N)C1 [DMX-76] | < 30 | < 30
19 | CN1CCN(c2ccc(Nc3nccc(-c4ccc(N5CC[C@H](O)C5)c(C#N)c4)n3)cn2)CC1 [DMX-54] | < 30 | < 30
20 | N#Cc1cc(-c2ccnc(Nc3ccn(CC(N)=O)n3)n2)ccc1N1CCCC1 [DMX-59] | 30 to 300 | 30 to 300
21 | CN1CCC(Nc2ccc(Nc3nccc(-c4ccc(N5CC[C@H](F)C5)c(C#N)c4)n3)cn2)CC1 [DMX-78] | < 30 | < 30

Row | SMILES | IC50 (TBK-1) [nM] | IC50 (IKKε) [nM]
22 | CN1CCC(Nc2ccc(Nc3nccc(-c4ccc(N5CC[C@H](O)C5)c(C#N)c4)n3)cn2)CC1 [DMX-79] | < 30 | < 30
23 | Cc1cc(C(N)=O)ccc1Nc1nccc(-c2ccc(N3CCCC3)c(C#N)c2)n1 [DMX-21] | 30 to 300 | 30 to 300
24 | CS(=O)(=O)c1cccc(Nc2nccc(-c3ccc(N4CCCC4)c(C#N)c3)n2)c1 [DMX-10] | < 30 | < 30
25 | CN(C)CCNc1ccc(Nc2nccc(-c3ccc(N4CCCC4)c(C#N)c3)n2)cn1 [DMX-33] | < 30 | < 30
26 | Cn1cc(Nc2nccc(-c3ccc(N4CCC(C(N)=O)CC4)c(C#N)c3)n2)cn1 [DMX-75] | 30 to 300 | < 30
27 | CN(C)c1ccc(Nc2nccc(-c3ccc(N4CCCC4)c(C#N)c3)n2)cn1 [DMX-20] | < 30 | < 30
28 | N#Cc1cc(-c2ccnc(Nc3ccncc3)n2)ccc1N1CCCC1 [DMX-12] |  | 300 to 9000
29 | N#Cc1cc(-c2ccnc(Nc3ccccc3)n2)ccc1N1CCCC1 [DMX-11] |  | 300 to 9000
30 | CC(=O)Nc1ccc(Nc2nccc(-c3ccc(N4CCCC4)c(C#N)c3)n2)cn1 [DMX-15] | < 30 | < 30
31 | Cn1cc(Nc2nccc(-c3ccc(N4CC[C@H](O)C4)c(C#N)c3)n2)cn1 [DMX-74] | < 30 | < 30
32 | CC(=O)Nc1ccc(Nc2nccc(-c3ccc(N4CCC(C(N)=O)CC4)c(C#N)c3)n2)cn1 [DMX-50, 1-{4-[2-(6-Acetylamino-pyridin-3-ylamino)-pyrimidin-4-yl]-2-cyano-phenyl}-piperidine-4-carboxylic acid amide] | 30 to 300 | < 30
33 | CN1CCN(c2ccc(Nc3nccc(-c4ccc(N5CCC[C@@H]5C(N)=O)c(C#N)c4)n3)cn2)CC1 [DMX-55] | < 30 | < 30
34 | CC(=O)Nc1ccc(Nc2nccc(-c3ccc(N4CCOCC4)c(C#N)c3)n2)cn1 [DMX-46] | < 30 | 30 to 300
35 | CN(C)CCNc1ccc(Nc2nccc(-c3ccc(N4CCC[C@@H]4C(N)=O)c(C#N)c3)n2)cn1 [DMX-72] | 30 to 300 | 30 to 300
36 | CC(=O)Nc1ccc(Nc2nccc(-c3ccc(N4CCN(C)CC4)c(C#N)c3)n2)cn1 [DMX-47] | 30 to 300 | 30 to 300
37 | Cn1nccc1Nc1nccc(-c2ccc(N3CC[C@H](O)C3)c(C#N)c2)n1 [DMX-52] | 30 to 300 | 30 to 300
38 | Cn1nc(C(N)=O)cc1Nc1nccc(-c2ccc(N3CCCC3)c(C#N)c2)n1 [DMX-41] |  | 30 to 300
39 | CC(=O)Nc1ccc(Nc2nccc(-c3ccc(N4CC[C@@H](O)C4)c(C#N)c3)n2)cn1 [DMX-73] | < 30 | < 30
40 | CN1CCC(NC(=O)c2cccc(Nc3nccc(-c4ccc(N5CCCC5)c(C#N)c4)n3)c2)CC1 [DMX-44] |  | < 30
41 | CN1CCC(Nc2ccc(Nc3nccc(-c4ccc(N5CCC(F)(F)C5)c(C#N)c4)n3)cn2)CC1 [DMX-80] | < 30 | < 30
42 | Cn1cncc1Nc1nccc(-c2ccc(N3CCCC3)c(C#N)c2)n1 [DMX-60] | 30 to 300 | 30 to 300

Row | SMILES | IC50 (TBK-1) [nM] | IC50 (IKKε) [nM]
43 | CC(=O)Nc1ccc(Nc2nccc(-c3ccc(N4CCC[C@@H]4C(N)=O)c(C#N)c3)n2)cn1 [DMX-51] | 30 to 300 | 30 to 300
44 | N#Cc1cc(-c2ccnc(Nc3ccc4c(c3)NC(=O)CC4)n2)ccc1N1CCCC1 [DMX-17] | < 30 | < 30
45 | N#Cc1cc(-c2ccnc(Nc3cccc(F)c3)n2)ccc1N1CCCC1 [DMX-3] |  | 30 to 300
46 | N#Cc1cc(-c2ccnc(Nc3cccnc3)n2)ccc1N1CCCC1 [DMX-18] |  | < 30
47 | N#Cc1cc(-c2ccnc(Nc3nc(C(N)=O)co3)n2)ccc1N1CCCC1 [DMX-39] |  | 300 to 9000
48 | C[C@H]1CCCN1c1ccc(-c2ccnc(Nc3ccc(NCCN(C)C)nc3)n2)cc1C#N [DMX-63] | < 30 | < 30
49 | CC(=O)Nc1ccc(Nc2nccc(-c3ccc(N4CC[C@H](O)C4)c(C#N)c3)n2)cn1 [DMX-48] | < 30 | < 30
50 | COc1ccc(Nc2nccc(-c3ccc(N4CCCC4)c(C#N)c3)n2)cn1 [DMX-58] | < 30 | < 30
51 | CN(C)CCNc1ccc(Nc2nccc(-c3ccc(N4CC[C@H](O)C4)c(C#N)c3)n2)cn1 [DMX-62] | < 30 | < 30
52 | Cn1nccc1Nc1nccc(-c2ccc(N3CCCC3)c(C#N)c2)n1 [DMX-27] | < 30 | 30 to 300
53 | CC(=O)Nc1cccc(Nc2nccc(-c3ccc(N4CCCC4)c(C#N)c3)n2)c1 [DMX-7] | < 30 | < 30
54 | Cc1csc(Nc2nccc(-c3ccc(N4CCCC4)c(C#N)c3)n2)n1 [DMX-32] |  | 300 to 9000
55 | N#Cc1cc(-c2ccnc(Nc3ccccn3)n2)ccc1N1CCCC1 [DMX-13] |  | 300 to 9000
56 | Cc1cnc(Nc2nccc(-c3ccc(N4CCCC4)c(C#N)c3)n2)s1 [DMX-30] |  | 300 to 9000
57 | COc1ccc(Nc2nccc(-c3ccc(N4CCCC4)c(C#N)c3)n2)cc1 [DMX-6] |  | < 30
58 | CN1CCN(C(=O)c2cccc(Nc3nccc(-c4ccc(N5CCCC5)c(C#N)c4)n3)c2)CC1 [DMX-43] |  | < 30
59 | N#Cc1cc(-c2ccnc(Nc3ncc(C(N)=O)o3)n2)ccc1N1CCCC1 [DMX-38] |  | 300 to 9000
60 | COc1cccc(Nc2nccc(-c3ccc(N4CCCC4)c(C#N)c3)n2)c1 [DMX-5] |  | < 30
61 | N#Cc1cc(-c2ccnc(Nc3cccc(C(=O)O)c3)n2)ccc1N1CCCC1 [DMX-42] |  | < 30
62 | Cc1cc(Nc2nccc(-c3ccc(N4CCCC4)c(C#N)c3)n2)no1 [DMX-25] |  | 300 to 9000

Source: patent US8962609B2, “Pyrimidine compounds as inhibitors of protein kinases IKK epsilon and/or TBK-1, processes for their preparation, and pharmaceutical compositions containing them” (Domainex Limited, priority 2010, dated 2015)
